The supplement of paper PMC10307832

What was measured:
Test in all cases: relative viability (nuclei count vs DMSO), 5 days (fraction); higher = more cells survive
NCI-H1734 = tested on: NCI-H1734
How it was run: (§1)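 Five library-drug doses in √10 steps were combined with a fixed anchor-drug dose, or a single drug was given alone, by pin tool to lung cancer cell lines in 1536-well plates the day after seeding. Nuclei were stained and counted after 5 days. Relative viability is the nuclei count in treated wells over that in vehicle wells, taken as the median of duplicate plates.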

NCI-H1395 = tested on: NCI-H1395
How it was run: as §1

NCI-H1793 = tested on: NCI-H1793
How it was run: as §1

HOP-62 = tested on: HOP-62
How it was run: as §1

NCI-H2342 = tested on: NCI-H2342
How it was run: as §1

NCI-H1755 = tested on: NCI-H1755
How it was run: as §1

SK-MES-1 = tested on: SK-MES-1
How it was run: as §1

NCI-H2009 = tested on: NCI-H2009
How it was run: as §1

NCI-H647 = tested on: NCI-H647
How it was run: as §1

UMC-11 = tested on: UMC-11
How it was run: as §1

COR-L 105 = tested on: COR-L 105
How it was run: as §1

NCI-H358 = tested on: NCI-H358
How it was run: as §1

NCI-H2228 = tested on: NCI-H2228
How it was run: as §1

PC-14 = tested on: PC-14
How it was run: as §1

HCC-15 = tested on: HCC-15
How it was run: as §1

HARA = tested on: HARA
How it was run: as §1

NCI-H838 = tested on: NCI-H838
How it was run: as §1

COR-L23 = tested on: COR-L23
How it was run: as §1

NCI-H2347 = tested on: NCI-H2347
How it was run: as §1

NCI-H1993 = tested on: NCI-H1993
How it was run: as §1

NCI-H1355 = tested on: NCI-H1355
How it was run: as §1

EKVX = tested on: EKVX
How it was run: as §1

NCI-H2170 = tested on: NCI-H2170
How it was run: as §1

NC(=O)Nc1cc(-c2cccc(F)c2)sc1C(=O)N[C@H]1CCCNC1 [AZD7762] + N=C(N)NC(=N)NCCc1ccccc1 [Phenformin] (partner 250 µM)
relative viability (NCI-H1734; first compound 0.01 µM): 0.44
relative viability (NCI-H1734; first compound 0.03162 µM): 0.44
relative viability (NCI-H1734; first compound 0.1 µM): 0.398
relative viability (NCI-H1734; first compound 0.3162 µM): 0.33
relative viability (NCI-H1734; first compound 1 µM): 0.211
relative viability (NCI-H1395; first compound 0.01 µM): 0.471
relative viability (NCI-H1395; first compound 0.03162 µM): 0.47
relative viability (NCI-H1395; first compound 0.1 µM): 0.491
relative viability (NCI-H1395; first compound 0.3162 µM): 0.434
relative viability (NCI-H1395; first compound 1 µM): 0.381
relative viability (NCI-H1793; first compound 0.01 µM): 0.428
relative viability (NCI-H1793; first compound 0.03162 µM): 0.416
relative viability (NCI-H1793; first compound 0.1 µM): 0.278
relative viability (NCI-H1793; first compound 0.3162 µM): 0.351
relative viability (NCI-H1793; first compound 1 µM): 0.279
relative viability (HOP-62; first compound 0.01 µM): 0.748
relative viability (HOP-62; first compound 0.03162 µM): 0.665
relative viability (HOP-62; first compound 0.1 µM): 0.791
relative viability (HOP-62; first compound 0.3162 µM): 0.616
relative viability (HOP-62; first compound 1 µM): 0.583
relative viability (NCI-H2342; first compound 0.01 µM): 0.597
relative viability (NCI-H2342; first compound 0.03162 µM): 0.605
relative viability (NCI-H2342; first compound 0.1 µM): 0.72
relative viability (NCI-H2342; first compound 0.3162 µM): 0.567
relative viability (NCI-H2342; first compound 1 µM): 0.56
relative viability (NCI-H1755; first compound 0.01 µM): 0.636
relative viability (NCI-H1755; first compound 0.03162 µM): 0.704
relative viability (NCI-H1755; first compound 0.1 µM): 0.656
relative viability (NCI-H1755; first compound 0.3162 µM): 0.596
relative viability (NCI-H1755; first compound 1 µM): 0.423
relative viability (SK-MES-1; first compound 0.01 µM): 0.699
relative viability (SK-MES-1; first compound 0.03162 µM): 0.663
relative viability (SK-MES-1; first compound 0.1 µM): 0.709
relative viability (SK-MES-1; first compound 0.3162 µM): 0.501
relative viability (SK-MES-1; first compound 1 µM): 0.158
relative viability (NCI-H2009; first compound 0.01 µM): 0.496
relative viability (NCI-H2009; first compound 0.03162 µM): 0.535
relative viability (NCI-H2009; first compound 0.1 µM): 0.535
relative viability (NCI-H2009; first compound 0.3162 µM): 0.543
relative viability (NCI-H2009; first compound 1 µM): 0.439
relative viability (NCI-H647; first compound 0.01 µM): 0.495
relative viability (NCI-H647; first compound 0.03162 µM): 0.445
relative viability (NCI-H647; first compound 0.1 µM): 0.494
relative viability (NCI-H647; first compound 0.3162 µM): 0.315
relative viability (NCI-H647; first compound 1 µM): 0.106
relative viability (UMC-11; first compound 0.01 µM): 0.372
relative viability (UMC-11; first compound 0.03162 µM): 0.322
relative viability (UMC-11; first compound 0.1 µM): 0.238
relative viability (UMC-11; first compound 0.3162 µM): 0.25
relative viability (UMC-11; first compound 1 µM): 0.234
relative viability (COR-L 105; first compound 0.01 µM): 0.5
relative viability (COR-L 105; first compound 0.03162 µM): 0.491
relative viability (COR-L 105; first compound 0.1 µM): 0.477
relative viability (COR-L 105; first compound 0.3162 µM): 0.429
relative viability (COR-L 105; first compound 1 µM): 0.254
relative viability (NCI-H358; first compound 0.01 µM): 0.305
relative viability (NCI-H358; first compound 0.03162 µM): 0.401
relative viability (NCI-H358; first compound 0.1 µM): 0.334
relative viability (NCI-H358; first compound 0.3162 µM): 0.242
relative viability (NCI-H358; first compound 1 µM): 0.185
relative viability (NCI-H2228; first compound 0.01 µM): 0.305
relative viability (NCI-H2228; first compound 0.03162 µM): 0.348
relative viability (NCI-H2228; first compound 0.1 µM): 0.223
relative viability (NCI-H2228; first compound 0.3162 µM): 0.152
relative viability (NCI-H2228; first compound 1 µM): 0.13
relative viability (PC-14; first compound 0.01 µM): 0.652
relative viability (PC-14; first compound 0.03162 µM): 0.611
relative viability (PC-14; first compound 0.1 µM): 0.459
relative viability (PC-14; first compound 0.3162 µM): 0.305
relative viability (PC-14; first compound 1 µM): 0.213
relative viability (HCC-15; first compound 0.01 µM): 0.483
relative viability (HCC-15; first compound 0.03162 µM): 0.475
relative viability (HCC-15; first compound 0.1 µM): 0.432
relative viability (HCC-15; first compound 0.3162 µM): 0.473
relative viability (HCC-15; first compound 1 µM): 0.445
relative viability (HARA; first compound 0.01 µM): 0.569
relative viability (HARA; first compound 0.03162 µM): 0.509
relative viability (HARA; first compound 0.1 µM): 0.501
relative viability (HARA; first compound 0.3162 µM): 0.282
relative viability (HARA; first compound 1 µM): 0.138
relative viability (NCI-H838; first compound 0.01 µM): 0.538
relative viability (NCI-H838; first compound 0.03162 µM): 0.566
relative viability (NCI-H838; first compound 0.1 µM): 0.669
relative viability (NCI-H838; first compound 0.3162 µM): 0.524
relative viability (NCI-H838; first compound 1 µM): 0.164
relative viability (COR-L23; first compound 0.01 µM): 0.458
relative viability (COR-L23; first compound 0.03162 µM): 0.446
relative viability (COR-L23; first compound 0.1 µM): 0.515
relative viability (COR-L23; first compound 0.3162 µM): 0.349
relative viability (COR-L23; first compound 1 µM): 0.131
relative viability (NCI-H2347; first compound 0.01 µM): 0.426
relative viability (NCI-H2347; first compound 0.03162 µM): 0.365
relative viability (NCI-H2347; first compound 0.1 µM): 0.51
relative viability (NCI-H2347; first compound 0.3162 µM): 0.483
relative viability (NCI-H2347; first compound 1 µM): 0.371
relative viability (NCI-H1993; first compound 0.01 µM): 0.553
relative viability (NCI-H1993; first compound 0.03162 µM): 0.504
relative viability (NCI-H1993; first compound 0.1 µM): 0.53
relative viability (NCI-H1993; first compound 0.3162 µM): 0.428
relative viability (NCI-H1993; first compound 1 µM): 0.502
relative viability (NCI-H1355; first compound 0.01 µM): 0.403
relative viability (NCI-H1355; first compound 0.03162 µM): 0.501
relative viability (NCI-H1355; first compound 0.1 µM): 0.456
relative viability (NCI-H1355; first compound 0.3162 µM): 0.49
relative viability (NCI-H1355; first compound 1 µM): 0.444
relative viability (EKVX; first compound 0.01 µM): 0.194
relative viability (EKVX; first compound 0.03162 µM): 0.244
relative viability (EKVX; first compound 0.1 µM): 0.245
relative viability (EKVX; first compound 0.3162 µM): 0.229
relative viability (EKVX; first compound 1 µM): 0.206
relative viability (NCI-H2170; first compound 0.01 µM): 0.411
relative viability (NCI-H2170; first compound 0.03162 µM): 0.41
relative viability (NCI-H2170; first compound 0.1 µM): 0.471
relative viability (NCI-H2170; first compound 0.3162 µM): 0.384
relative viability (NCI-H2170; first compound 1 µM): 0.423
